Entries after “also recorded” stand apart in the source; their conditions may differ.
Assays:
Type in all cases: cell-based
[1] = tested on: panel of breast cancer cell lines; experiment: 72-hour in vitro proliferation combination assay, compound A with targeted agents and chemotherapies (Example 3, Table 21)
HCC1806 = experiment: Cell viability combination assay (Cell Titer Glo, Bliss synergy matrix), paclitaxel 4 h pretreatment then compound A; conditions: for Synergy Results (95% CI): Paclitaxel 0.000 μM
Procedure: (§1) Cells were passaged according to ATCC guidelines with 0.25% Trypsin/EDTA (1× GIBCO-25200).
(§2) Viability assessments were performed using Cell Titer Glo™ (Promega #G9241) according to manufactures microwell plate protocol and read for luminescence on Synergy Neo2 plate reader.
(§3) For synergy matrix assays, TNBC cell lines were seeded 10,000 cells per well in clear-bottomed white 96-well plates (Corning #3909) in 100 μL of recommended cell culture medium. Plates were incubated at 37° C. and 100% RH for 20 hours prior to compound exposure.
(§4) Cells were then exposed to compound A with the same checkerboard matrix using D300 dispenser and incubated for 48 hours prior to measurement of viability by Cell Titer Glo.
(§5) Calculated values were compared to experimental results generated in the sixty-three-concentration checkerboard. Synergy or antagonism scores were generated depending on whether the observed growth inhibition was greater than or less than the calculated values, respectively.
(§6) These differences were summed up across the whole checker-board (sixty-three wells) to give cumulative synergy and antagonism scores with units of μM^2% to reflect the 2D surface of the dose responses.
(§7) Data for combination assays is presented in three formats.

HCC1187 (TNBC) = experiment: Cell viability combination assay (Cell Titer Glo, Bliss synergy matrix), compound A + SN-38; conditions: HCC1187 1st Replicate (n = 5); SN-38 0.0000 μM; Compound A μM = c0 of row; 72 h
Source text: as §1, §5, §7

MCL1-BIM Dimer = experiment: MCL1-BIM dimer MSD assay in TNBC cell lines after paclitaxel; conditions: HCC70, MDA-MB-468, HCC1806; paclitaxel 1 μM for 4 hours, overnight incubation
Procedure: (§8) Cell lysates for MSD assays were generated using 1× Lysis Buffer (10× cell signaling CST-9803) 100× Protease Inhibitor, Phosphatase Inhibitor I, Phosphatase Inhibitor II (Meso Scale Discovery Inhibitor Pack R70AA-1, and PMSF (SIGMA cat #7626)
(§9) MCL-BAK and MCL1-BIM dimer assays and total MCL1 assay were developed by MSD Custom Assay Services and run using the MSD U-PLEX Development Pack (K15227N) and protocols' revision “2018 March rev 2”. GAPDH was determined by MSD using standard assay K151PWD. All plates were read on MSD SECTOR Imager 2400 using MSD Read Buffer T (R92TC).
(§10) For MSD assays, TNBC cell lines were seeded 25,000 cells per well in clear-bottomed white 96-well plates (Corning #3909) in recommended cell culture medium. Plates were incubated at 37° C. and 100% RH for 20 hours prior to compound exposure. […] After an additional 20 hours, samples were harvested by aspirating away supernatant and 125 μl of 1× lysis buffer was added to each well. Plates were set on ice briefly and transferred to a rocking platform at 4° C. for 20 minutes. Plates were placed on dry ice, snap frozen for 10 minutes then stored at −80° C. until tested.
(§11) MCL1 and MCL1-BAK and MCL1-BIM dimer assays were run using materials and protocols provided by MSD Custom Assay Services based on their U-Plex technology. […] 150 μl of 2× read buffer was added to each well and plates were read on an MSD SECTOR Imager 2400. […]

FBXW7 = FBXW7 expression by Protein Simple (Simple Western) in TNBC cell lines after paclitaxel; conditions: HCC70, MDA-MB-468, HCC1806; paclitaxel 1 μM for 4 hours, overnight incubation
Source text: Simple Western immunoassays take place in a capillary. Samples and reagents are loaded into an assay plate and placed in a Protein Simple Instrument. Cell lysates are loaded into the capillary automatically and separated by size as they migrate through a stacking and separation matrix. The separated proteins are then immobilized to the capillary wall via a proprietary, photoactivated capture chemistry. Target proteins are identified using a primary antibody and immunoprobed using an HRP-conjugated secondary antibody and chemiluminescent substrate. The resulting chemiluminescent signal is detected and quantitated.
Lysates were prepared, diluted to 0.5 ug/ml in 1× lysis buffer. Simple Western platform is run on a 384-well plate.
Markers, internal ladders and DTT are provided by Simple Western in lyophilized forms. Reagents are resuspended as protocol describes. 20 uL of water is added to the markers. 40 ul of water is added to DTT, 20 ul of 10× sample buffer and 20 ul of DTT is mixed and called Z buffer. Markers are loaded in 1 A. 5 ul of lysate was added to 1.7 ml Eppendorf tube. 1.2 ul of Z reagent was added to each sample. The samples were heated at 100 C for 5 minutes, allowed to cool than spun in a microfuge for 30 seconds. Samples are loaded in wells A2-12. […] The resulting chemiluminescent signal is detected and quantitated.

MCL1-BAK Dimer = experiment: MCL1-BAK dimer MSD assay in TNBC cell lines after paclitaxel; conditions: HCC70, MDA-MB-468, HCC1806; paclitaxel 1 μM for 4 hours, overnight incubation
Procedure: as §8, §9, §10, §11

MCL1 = experiment: Total MCL1 MSD assay in TNBC cell lines after paclitaxel; conditions: HCC70, MDA-MB-468, HCC1806; paclitaxel 1 μM for 4 hours, overnight incubation
Procedure: as §8, §9, §10, §11

MDA-MB-468 = experiment: Cell viability combination assay (Cell Titer Glo, Bliss synergy matrix), paclitaxel 4 h pretreatment then compound A; conditions: Homo sapiens, MDA-MB-468, 4 h; read-out: Percent Inhibition
Procedure: as §1, §2, §3, §4, §5, §6, §7

HCC70 = experiment: as above; conditions: Homo sapiens, HCC70, 4 h; read-out: Percent Inhibition
Procedure: as §1, §2, §3, §4, §5, §6, §7

[2] = AU565 cell line, compound A × listed agent, 72-hour in vitro proliferation assay
[3] = BT-20 cell line, compound A × listed agent, 72-hour in vitro proliferation assay
[4] = DU-4475 cell line, compound A × listed agent, 72-hour in vitro proliferation assay
[5] = BT-549 cell line, compound A × listed agent, 72-hour in vitro proliferation assay
[6] = Homo sapiens, read-out: Percent Inhibition
[7] = BT-474 cell line, compound A × listed agent, 72-hour in vitro proliferation assay
[8] = KPL-1 cell line, Compound A × named agent, 72-hour proliferation
[9] = MCF7, combination with compound A, 72-hour proliferation
[10] = MDA-MB-175-VII, combination with compound A, 72-hour proliferation
[11] = MDA-MB-231, combination with compound A, 72-hour proliferation
[12] = MDA-MB-361, combination with compound A, 72-hour proliferation
[13] = MDA-MB-436, combination with compound A, 72-hour proliferation
[14] = MDA-MB-453, combination with compound A, 72-hour proliferation
[15] = MDA-MB-468, combination with compound A, 72-hour proliferation
[16] = SK-BR-3 cell line, combination Compound A × listed agent, 72-hour proliferation
[17] = SUM159PT cell line, combination Compound A × listed agent, 72-hour proliferation
[18] = T47D cell line, combination Compound A × listed agent, 72-hour proliferation
[19] = ZR-75-1 cell line, combination Compound A × listed agent, 72-hour proliferation
[20] = ZR-75-30 cell line, combination Compound A × listed agent, 72-hour proliferation

N.N.O=C([O-])C1(C(=O)[O-])CCC1.[Pt+2] [Carboplatin]
Best CI Level [1, 2]: 40
Best CI Level [1, 3]: 170
Best CI Level ([1]; CAL-51 cell line, compound A × listed agent, 72-hour in vitro proliferation assay): 165
Best CI Level ([1]; CAL-85-1 cell line, compound A × listed agent, 72-hour in vitro proliferation assay): 110
Best CI Level ([1]; CAMA-1 cell line, compound A × listed agent, 72-hour in vitro proliferation assay): 180
Best CI Level [1, 4]: 180
Best CI Level ([1]; EVSA-T cell line, compound A × listed agent, 72-hour in vitro proliferation assay): 180

N.N.[Cl][Pt][Cl] [Cisplatin]
Best CI Level [1, 2]: 35
Best CI Level [1, 3]: 65
Best CI Level [1, 5]: 160
Best CI Level ([1]; CAL-120 cell line, compound A × listed agent, 72-hour in vitro proliferation assay): 35
Best CI Level ([1]; CAL-148 cell line, compound A × listed agent, 72-hour in vitro proliferation assay): 140
Best CI Level [1, 4]: 40
Best CI Level ([1]; HCC1143 cell line, compound A × listed agent, 72-hour in vitro proliferation assay): 55

COc1nn(C)cc1C(=O)N[S@@]1(=O)=NC(=O)c2ccc3c(c2)N(C[C@@H]2CC[C@H]2[C@@H](OC)CCC[C@H](C)C1)C[C@@]1(CCCc2cc(Cl)ccc21)CO3 [Compound A]
Synergy Results (95% CI) (HCC1806; Compound A 0.004 μM): 0.0
Synergy Results (95% CI) (HCC1806; Compound A 1.000 μM): 0.0
Synergy Results (95% CI) (HCC1806; Compound A 3.000 μM): 0.0
Synergy Results (95% CI) (HCC1806; Compound A […]): 0.0
inhibition at 0.004 µM (HCC1806; [6]): 0.7%
inhibition at 1 µM (HCC1806; [6]): 8.6%
inhibition at 3 µM (HCC1806; [6]): 17.9%
Percent Inhibition (HCC1187 (TNBC)): 99.2%

CC(=O)O[C@@]12CO[C@@H]1C[C@H](O)[C@@]1(C)C(=O)[C@H](O)C3=C(C)[C@@H](OC(=O)[C@H](O)[C@@H](NC(=O)OC(C)(C)C)c4ccccc4)C[C@@](O)([C@@H](OC(=O)c4ccccc4)[C@H]21)C3(C)C [Docetaxel]
Best CI Level ([1]; 72 h): 170

CCOc1cc2ncc(C#N)c(Nc3ccc(OCc4ccccn4)c(Cl)c3)c2cc1NC(=O)/C=C/CN(C)C [Neratinib]
Bliss Volume [1, 7]: 28.98
HSA volume [1, 7]: 20.36
Loewe Volume [1, 7]: 18.83
Synergy Score [1, 7]: 39.01
Best CI [1, 5]: 0.31
Bliss Volume [1, 5]: 17.92
HSA volume [1, 5]: 13.17
Loewe Volume [1, 5]: 13.98
Synergy Score [1, 5]: 25.15
Best CI [1, 8]: 0.55
Bliss Volume [1, 8]: 9.37
HSA volume [1, 8]: 2.11
Loewe Volume [1, 8]: 2.47
Synergy Score [1, 8]: 9.97
Best CI [1, 9]: 0.44
Bliss Volume [1, 9]: 20.28
HSA volume [1, 9]: 8.47
Loewe Volume [1, 9]: 8.60
Best CI [1, 10]: 0.64
Bliss Volume [1, 10]: 18.28
HSA volume [1, 10]: 8.80
Loewe Volume [1, 10]: 7.95
Synergy Score [1, 10]: 11.07
Bliss Volume [1, 11]: 6.82
HSA volume [1, 11]: 2.87
Loewe Volume [1, 11]: 5.05
Synergy Score [1, 11]: 4.59
Bliss Volume [1, 12]: 8.05
HSA volume [1, 12]: 9.22
Loewe Volume [1, 12]: 8.69
Synergy Score [1, 12]: 10.96
Best CI [1, 13]: 0.26
Bliss Volume [1, 13]: 5.24
HSA volume [1, 13]: −0.69
Loewe Volume [1, 13]: 0.79
Synergy Score [1, 13]: 4.11
Best CI [1, 14]: 0.35
HSA volume [1, 14]: 10.24
Loewe Volume [1, 14]: 8.51
Synergy Score [1, 14]: 16.63
Bliss Volume [1, 15]: 34.71
Loewe Volume [1, 15]: 9.11
Synergy Score [1, 15]: 19.05
Best CI [1, 16]: 0.12
Bliss Volume [1, 16]: 28.46
HSA volume [1, 16]: 11.39
Synergy Score [1, 16]: 22.77
Best CI [1, 17]: 0.17
Bliss Volume [1, 17]: 15.93
HSA volume [1, 17]: 11.51
Loewe Volume [1, 17]: 12.90
Synergy Score [1, 17]: 22.98
Bliss Volume [1, 18]: 7.67
HSA volume [1, 18]: 2.55
Loewe Volume [1, 18]: 5.95
Synergy Score [1, 18]: 11.73
Best CI [1, 19]: 0.86
Bliss Volume [1, 19]: 13.55
HSA volume [1, 19]: 6.49
Loewe Volume [1, 19]: 7.51
Synergy Score [1, 19]: 10.39
Best CI [1, 20]: 0.41
Bliss Volume [1, 20]: 32.84
HSA volume [1, 20]: 16.20
Loewe Volume [1, 20]: 14.61
Synergy Score [1, 20]: 30.49

CC(=O)O[C@H]1C(=O)[C@@]2(C)[C@H]([C@H](OC(=O)c3ccccc3)[C@]3(O)C[C@H](OC(=O)[C@H](O)[C@@H](NC(=O)c4ccccc4)c4ccccc4)C(C)=C1C3(C)C)[C@]1(OC(C)=O)CO[C@@H]1C[C@@H]2O [Paclitaxel]
protein levels of MCL1-BIM dimers vs vehicle control (in words) (MCL1-BIM Dimer): Decreases; also recorded: reduced
FBXW7 protein levels vs vehicle control (in words) (FBXW7): Increases; also recorded: elevated
protein levels of MCL1-BAK dimers vs vehicle control (in words) (MCL1-BAK Dimer): Decreases; also recorded: reduced
MCL1 protein levels vs vehicle control (in words) (MCL1): Decreases; also recorded: reduced
inhibition at 0.0005 µM (MDA-MB-468): 1.1%
inhibition at 1 µM (MDA-MB-468): 65.1%
inhibition at 3 µM (MDA-MB-468): 70.5%
inhibition at 0.0005 µM (HCC70): -2.3%
inhibition at 1 µM (HCC70): 53.3%
inhibition at 3 µM (HCC70): 61.4%

Reference: patent publication US11957693B2, “Combination MCL-1 inhibitors with anti-cancer agents” (Gilead Sciences, Inc., priority 2021, dated 2024)
